Common to all, as to assay: inhibition of tumour cell growth, NCI panel, 48 h
Assay [1] deals with 786-0 renal.
The subject of assay [2] is A549 NSCLC.
Assay [3] relates to ACHN renal.
Assay [4] has as its system HCC-2998 colon.
Assay [5] relates to HCT-15 colon.
Assay [6] has as its system HL-60(TB) leukemia.
The subject of assay [7] is OVCAR-3 ovarian.
Assay [8] has as its system SW-620 colon.
The subject of assay [9] is U251 CNS.
In assay [10] the test system is UO-31 renal.

SMILES strings stand for the structures. Where “and” joins values, the source holds several entries; their conditions need not be identical. Equal values may be shown once.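 Test compounds were applied to cells in 96-well plates for 48 hours at 5 doses. GI50: concentration for 50% inhibition of growth. TGI marks complete inhibition of growth.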

On to `O=c1oc2ccc(Cl)cc2c(=O)n1-c1ccc(I)cc1F`, for which the GI50 in assay [1] is 1.36 µM; in [2], 1.01 µM; in [3] it was 0.315 µM; in assay [4] it was 2.66 µM; in assay [5], 0.231 µM; in [6] it was 0.286 µM. Besides, the GI50 in assay [7] is 0.177 µM; in [8], 0.384 µM; in assay [9] it was 0.262 µM; in [10], 0.126 µM. In addition, the TGI in assay [1] is 4.13 µM; in [2], > 100 µM; in assay [3], 7.51 µM; in assay [4], 8.51 µM; in assay [5], 6.74 µM; in [6], 1.36 µM. The TGI in [7] was 13.3 µM; in assay [8], 7.58 µM; in [9], > 35.6 µM; in [10] it was 1.2 µM.

Regarding `CC(=O)C1=C([O-])C(C)OC1=O.CC(=O)C1=C([O-])C(C)OC1=O.[NH-]C1CCCC[C@H]1[NH-].[Pt+4]` (stereo unspecified), the GI50 in [1] was 9.67 µM; in assay [2], 88.1 µM; in assay [3] it was 73.2 µM; in assay [4], > 100 µM; in [5], 67.4 µM; in assay [6], 16.1 µM. The GI50 in [7] was > 100 µM; in [8], 8.69 µM; in assay [9], > 100 µM; in assay [10] it was > 100 µM. The TGI in assay [1], in [2], in assay [3], in [4], in assay [5] and in assay [6] was > 100 µM throughout. The TGI in [7], in assay [8], in assay [9] and in [10] was > 100 µM in each case.

`N#CC1C(N)=NNC12Nc1ccccc1N2` (stereo unspecified): the GI50 is 45 µM in assay [1]; 9.43 µM in assay [2]; 34.9 µM in assay [3]; 31.9 µM in [4]; 31.4 µM in assay [5]; 52.4 µM in assay [6]. In addition, the GI50 in [7] is 3.16 µM; in [8], 26.8 µM; in assay [9] it was 22.6 µM; in assay [10] it was 11.5 µM. The TGI in [1], in assay [2], in assay [3], in assay [4], in assay [5] and in assay [6] was > 100 µM throughout. In addition, the TGI in [7] was 19.4 µM; in assay [8], > 100 µM; in [9], > 100 µM; in assay [10], 84.9 µM.

Take `Clc1ccc2nc(Oc3ccccc3)cnc2c1`: the GI50 in assay [1], in assay [2], in assay [3], in assay [4], in assay [5] and in [6] was > 100 µM throughout. For the same molecule, the GI50 in assay [7], in assay [8], in [9] and in assay [10] was > 100 µM in each case. The TGI in assay [1], in assay [2], in assay [3], in assay [4], in [5] and in assay [6] was > 100 µM each time. Further, the TGI in assay [7], in assay [8], in assay [9] and in [10] was > 100 µM throughout.

As to `CN(C)c1ccc(N=Nc2c([O-])ccc3ccccc23)cc1.[C-]#[O+].[C-]#[O+].[Ir]`, the GI50 in [1] was 26.4 µM; in assay [2], > 46.6 µM; in assay [3], 5.43 µM; in assay [4] it was 38.5 µM; in [5] it was 18.5 µM; in assay [6], 10.6 µM. Besides, the GI50 was 20.7 µM in assay [7], 1.48 µM in assay [8], 35.1 µM in assay [9] and 26.7 µM in assay [10]. For the same molecule, the TGI was > 56.3 µM in assay [1]; > 69.3 µM in assay [2]; 55.2 µM in assay [3]; > 79.9 µM in assay [4]; 34.9 µM in [5]; > 46.6 µM in assay [6]. Besides, the TGI in [7] was 45.6 µM; in assay [8] it was 25.7 µM; in [9] it was > 69.3 µM; in assay [10], > 53.2 µM.

In the case of `FC(F)(F)c1ccc2nc(Nc3ccc(Cl)c(Cl)c3)c(-c3ccccc3)nc2c1`, the TGI in assay [1], in [2], in [3], in assay [4], in [5] and in assay [6] was > 100 µM in each case. Also, the TGI in [7], in assay [8], in assay [9] and in assay [10] was > 100 µM throughout.

`CCc1c2c(nc3cccc(N)c13)-c1cc3c(c(=O)n1C2)COC(=O)[C@]3(O)CC`: the GI50 in [1] is < 0.001 µM; in assay [2] it was 0.00817 µM; in assay [4], 0.0349 µM and 0.02 µM; in [6] it was 0.00127 µM; in [7], 0.237 µM; in assay [8] it was 0.011 µM. Moreover, the GI50 was < 0.001 µM in [9] and 0.0516 µM in [10]. Further, the TGI in assay [1] was 1.62 µM; in assay [2], 0.504 µM; in [4] it was 1.39 µM and 11.4 µM; in [5] it was > 100 µM; in assay [6], 0.0182 µM; in assay [8] it was > 100 µM. In addition, the TGI in assay [9] was 0.0348 µM and 0.03 µM; in [10], 0.397 µM.

In the case of `C[C@H](CSC(=O)c1ccccc1)C(=O)N1c2ccccc2C[C@H]1C(=O)O`, the TGI in [1] is > 10 µM; in assay [2], > 100 µM; in [3], > 100 µM; in assay [4] it was > 100 µM; in [5], > 100 µM; in assay [6] it was > 100 µM. Moreover, the TGI in assay [7], in [8], in assay [9] and in [10] was > 100 µM in each case.
